From patent US10004701B2, “Methods and compositions for treating infection” (UNIVERSITY OF ROCHESTER, priority 2012, dated 2018)
Structures can show the parent of a compound that is named as a salt. Where two headings read alike, the source gives them in different places.

Key:
Assay in all cases: AK assay 384-well format, Prestwick library screening
E. cloacae = format: cell-based, Enterobacter cloacae; conditions: Enterobacter cloacae, 3 h, 50 μM final drug concentration
E. faecium = format: cell-based, Enterococcus faecium; conditions: Enterococcus faecium, 3 h, 50 μM final drug concentration
E. coli = format: cell-based, Escherichia coli; conditions: Escherichia coli, 3 h, 50 μM final drug concentration
[1] = system: S. aureus strain USA300-0114; format: cell-based, Staphylococcus aureus; conditions: Staphylococcus aureus, USA300, 3 h, 50 μM final drug concentration
[2] = system: A. baumannii strain 98-37-09; format: cell-based, Acinetobacter baumannii; conditions: Acinetobacter baumannii, 983709, 3 h, 50 μM final drug concentration
K. pneumoniae = format: cell-based, Klebsiella pneumoniae; conditions: Klebsiella pneumoniae, 3 h, 50 μM final drug concentration
P. aeruginosa = format: cell-based, Pseudomonas aeruginosa; conditions: Pseudomonas aeruginosa, 3 h, 50 μM final drug concentration
[3] = 384-well format, cutoff for positive-scoring molecules 3-fold increase, read-out: AK-based Prestwick Library Screening Results, E. cloacae (increase in extracellular AK activity)
[4] = 384-well format, cutoff for positive-scoring molecules 3-fold increase, read-out: AK-based Prestwick Library Screening Results, E. faecium (increase in extracellular AK activity)
[5] = 384-well format, cutoff for positive-scoring molecules 3-fold increase, read-out: AK-based Prestwick Library Screening Results, E. coli (increase in extracellular AK activity)
[6] = 384-well format, cutoff for positive-scoring molecules 3-fold increase, read-out: AK-based Prestwick Library Screening Results, S. aureus (increase in extracellular AK activity)
[7] = 384-well format, cutoff for positive-scoring molecules 3-fold increase, read-out: AK-based Prestwick Library Screening Results, A. baumannii (increase in extracellular AK activity)
[8] = 384-well format, cutoff for positive-scoring molecules 3-fold increase, read-out: AK-based Prestwick Library Screening Results, K. pneumoniae (increase in extracellular AK activity)
[9] = 384-well format, cutoff for positive-scoring molecules 3-fold increase, read-out: AK-based Prestwick Library Screening Results, P. aeruginosa (increase in extracellular AK activity)

## CCc1cccc(CC)c1NC(=O)CN(CC(=O)O)CC(=O)O [Etifenin]
E. cloacae; planktonic E. cloacae, cutoff for positive-scoring molecules 3-fold increase, read-out: AK-based Prestwick Library Screening Results, E. cloacae (increase in extracellular AK activity)
  fold induction at 50 µM: 1
E. faecium; planktonic E. faecium, cutoff for positive-scoring molecules 3-fold increase, read-out: AK-based Prestwick Library Screening Results, E. faecium (increase in extracellular AK activity)
  fold induction at 50 µM: 0.9
E. coli; planktonic E. coli, cutoff for positive-scoring molecules 3-fold increase, read-out: AK-based Prestwick Library Screening Results, E. coli (increase in extracellular AK activity)
  fold induction at 50 µM: 1.1
[1]; planktonic S. aureus, cutoff for positive-scoring molecules 3-fold increase, read-out: AK-based Prestwick Library Screening Results, S. aureus (increase in extracellular AK activity)
  fold induction at 50 µM: 0.5
[2]; planktonic A. baumannii, cutoff for positive-scoring molecules 3-fold increase, read-out: AK-based Prestwick Library Screening Results, A. baumannii (increase in extracellular AK activity)
  fold induction at 50 µM: 0.9
K. pneumoniae; planktonic K. pneumoniae, cutoff for positive-scoring molecules 3-fold increase, read-out: AK-based Prestwick Library Screening Results, K. pneumoniae (increase in extracellular AK activity)
  fold induction at 50 µM: 0.8
P. aeruginosa; planktonic P. aeruginosa, cutoff for positive-scoring molecules 3-fold increase, read-out: AK-based Prestwick Library Screening Results, P. aeruginosa (increase in extracellular AK activity)
  fold induction at 50 µM: 0.9

## CCNCC(O)c1cccc(O)c1 (centres unmarked) [Etilefrine hydrochloride]
E. cloacae; planktonic E. cloacae, positive cutoff 3-fold increase, read-out: AK-based Prestwick library screening result, E. cloacae (fold increase in extracellular AK activity)
  fold induction at 50 µM: 1.5
E. faecium; planktonic E. faecium, positive cutoff 3-fold increase, read-out: AK-based Prestwick library screening result, E. faecium (fold increase in extracellular AK activity)
  fold induction at 50 µM: 1
E. coli; planktonic E. coli, positive cutoff 3-fold increase, read-out: AK-based Prestwick library screening result, E. coli (fold increase in extracellular AK activity)
  fold induction at 50 µM: 1
[1]; planktonic S. aureus, positive cutoff 3-fold increase, read-out: AK-based Prestwick library screening result, S. aureus (fold increase in extracellular AK activity)
  fold induction at 50 µM: 1.1
[2]; planktonic A. baumannii, positive cutoff 3-fold increase, read-out: AK-based Prestwick library screening result, A. baumannii (fold increase in extracellular AK activity)
  fold induction at 50 µM: 1.4
K. pneumoniae; planktonic K. pneumoniae, positive cutoff 3-fold increase, read-out: AK-based Prestwick library screening result, K. pneumoniae (fold increase in extracellular AK activity)
  fold induction at 50 µM: 0.8
P. aeruginosa; planktonic P. aeruginosa, positive cutoff 3-fold increase, read-out: AK-based Prestwick library screening result, P. aeruginosa (fold increase in extracellular AK activity)
  fold induction at 50 µM: 1.1

## CCc1cccc2c3c([nH]c12)C(CC)(CC(=O)O)OCC3 (centres unmarked) [Etodolac]
E. cloacae; planktonic E. cloacae, 384-well, cutoff for positive-scoring molecules 3-fold increase, read-out: AK-based Prestwick Library Screening Results: E. cloacae (increase in extracellular AK activity)
  fold induction at 50 µM: 1.2
E. faecium; planktonic E. faecium, 384-well, cutoff for positive-scoring molecules 3-fold increase, read-out: AK-based Prestwick Library Screening Results: E. faecium (increase in extracellular AK activity)
  fold induction at 50 µM: 1.1
E. coli; planktonic E. coli, 384-well, […], read-out: AK-based Prestwick Library Screening Results: E. coli (increase in extracellular AK activity)
  fold induction at 50 µM: 1.2
[1]; planktonic S. aureus, 384-well, cutoff for positive-scoring molecules 3-fold increase, read-out: AK-based Prestwick Library Screening Results: S. aureus (increase in extracellular AK activity)
  fold induction at 50 µM: 1
[2]; planktonic A. baumannii, 384-well, cutoff for positive-scoring molecules 3-fold increase, read-out: AK-based Prestwick Library Screening Results: A. baumannii (increase in extracellular AK activity)
  fold induction at 50 µM: 1.4
K. pneumoniae; planktonic K. pneumoniae, 384-well, cutoff for positive-scoring molecules 3-fold increase, read-out: AK-based Prestwick Library Screening Results: K. pneumoniae (increase in extracellular AK activity)
  fold induction at 50 µM: 1.3
P. aeruginosa; planktonic P. aeruginosa, 384-well, cutoff for positive-scoring molecules 3-fold increase, read-out: AK-based Prestwick Library Screening Results: P. aeruginosa (increase in extracellular AK activity)
  fold induction at 50 µM: 1.5

## Cn1c(=O)c2c(ncn2CCO)n(C)c1=O [Etofylline]
E. cloacae; [3]
  fold induction at 50 µM: 0.9
E. faecium; [4]
  fold induction at 50 µM: 1
E. coli; [5]
  fold induction at 50 µM: 0.8
[1]; [6]
  fold induction at 50 µM: 0.8
[2]; [7]
  fold induction at 50 µM: 0.8
K. pneumoniae; [8]
  fold induction at 50 µM: 0.6
P. aeruginosa; [9]
  fold induction at 50 µM: 0.7

## COc1cc([C@@H]2c3cc4c(cc3[C@@H](O[C@@H]3O[C@@H]5CO[C@@H](C)O[C@H]5[C@H](O)[C@H]3O)[C@H]3COC(=O)[C@H]23)OCO4)cc(OC)c1O [Etoposide]
E. cloacae; planktonic, cutoff for positive 3-fold increase, read-out: AK-based Prestwick Library Screening Results, E. cloacae (fold increase in extracellular AK activity)
  fold induction at 50 µM: 1.4
E. faecium; planktonic, cutoff for positive 3-fold increase, read-out: AK-based Prestwick Library Screening Results, E. faecium (fold increase in extracellular AK activity)
  fold induction at 50 µM: 1.1
E. coli; planktonic, […], read-out: AK-based Prestwick Library Screening Results, E. coli (fold increase in extracellular AK activity)
  fold induction at 50 µM: 1.2
[1]; planktonic, cutoff for positive 3-fold increase, read-out: AK-based Prestwick Library Screening Results, S. aureus (fold increase in extracellular AK activity)
  fold induction at 50 µM: 1.4
[2]; planktonic, cutoff for positive 3-fold increase, read-out: AK-based Prestwick Library Screening Results, A. baumannii (fold increase in extracellular AK activity)
  fold induction at 50 µM: 1.2
K. pneumoniae; planktonic, cutoff for positive 3-fold increase, read-out: AK-based Prestwick Library Screening Results, K. pneumoniae (fold increase in extracellular AK activity)
  fold induction at 50 µM: 1
P. aeruginosa; planktonic, cutoff for positive 3-fold increase, read-out: AK-based Prestwick Library Screening Results, P. aeruginosa (fold increase in extracellular AK activity)
  fold induction at 50 µM: 1

## CC1CC(OC(=O)C(O)c2ccccc2)CC(C)(C)N1C (centres unmarked) [Eucatropine hydrochloride]
E. cloacae; cutoff for positive-scoring molecules 3-fold increase, read-out: AK-based Prestwick Library Screening Results, E. cloacae (fold increase in extracellular AK activity)
  fold induction at 50 µM: 1.6
E. faecium; cutoff for positive-scoring molecules 3-fold increase, read-out: AK-based Prestwick Library Screening Results, E. faecium (fold increase in extracellular AK activity)
  fold induction at 50 µM: 1.1
E. coli; cutoff for positive-scoring molecules 3-fold increase, read-out: AK-based Prestwick Library Screening Results, E. coli (fold increase in extracellular AK activity)
  fold induction at 50 µM: 1.2
[1]; cutoff for positive-scoring molecules 3-fold increase, read-out: AK-based Prestwick Library Screening Results, S. aureus (fold increase in extracellular AK activity)
  fold induction at 50 µM: 1.3
[2]; cutoff for positive-scoring molecules 3-fold increase, read-out: AK-based Prestwick Library Screening Results, A. baumannii (fold increase in extracellular AK activity)
  fold induction at 50 µM: 1.1
K. pneumoniae; cutoff for positive-scoring molecules 3-fold increase, read-out: AK-based Prestwick Library Screening Results, K. pneumoniae (fold increase in extracellular AK activity)
  fold induction at 50 µM: 0.9
P. aeruginosa; cutoff for positive-scoring molecules 3-fold increase, read-out: AK-based Prestwick Library Screening Results, P. aeruginosa (fold increase in extracellular AK activity)
  fold induction at 50 µM: 1.1

## COc1c2ccoc2nc2c(OC)c(OCC(O)C(C)(C)O)ccc12 (centres unmarked) [Evoxine]
E. cloacae; planktonic, cutoff for positive-scoring molecules 3-fold increase, read-out: AK-based Prestwick Library Screening Results, E. cloacae (fold increase in extracellular AK activity)
  fold induction at 50 µM: 1.1
E. faecium; planktonic, cutoff for positive-scoring molecules 3-fold increase, read-out: AK-based Prestwick Library Screening Results, E. faecium (fold increase in extracellular AK activity)
  fold induction at 50 µM: 0.8
E. coli; planktonic, cutoff for positive-scoring molecules 3-fold increase, read-out: AK-based Prestwick Library Screening Results, E. coli (fold increase in extracellular AK activity)
  fold induction at 50 µM: 0.7
[1]; planktonic, cutoff for positive-scoring molecules 3-fold increase, read-out: AK-based Prestwick Library Screening Results, S. aureus (fold increase in extracellular AK activity)
  fold induction at 50 µM: 0.6
[2]; planktonic, cutoff for positive-scoring molecules 3-fold increase, read-out: AK-based Prestwick Library Screening Results, A. baumannii (fold increase in extracellular AK activity)
  fold induction at 50 µM: 0.7
K. pneumoniae; planktonic, cutoff for positive-scoring molecules 3-fold increase, read-out: AK-based Prestwick Library Screening Results, K. pneumoniae (fold increase in extracellular AK activity)
  fold induction at 50 µM: 0.7
P. aeruginosa; planktonic, cutoff for positive-scoring molecules 3-fold increase, read-out: AK-based Prestwick Library Screening Results, P. aeruginosa (fold increase in extracellular AK activity)
  fold induction at 50 µM: 0.8

## NC(N)=Nc1nc(CSCCC(N)=NS(N)(=O)=O)cs1 [Famotidine]
E. cloacae; [3]
  fold induction at 50 µM: 1
E. faecium; [4]
  fold induction at 50 µM: 0.8
E. coli; [5]
  fold induction at 50 µM: 0.9
[1]; [6]
  fold induction at 50 µM: 0.5
[2]; [7]
  fold induction at 50 µM: 0.8
K. pneumoniae; [8]
  fold induction at 50 µM: 0.8
P. aeruginosa; [9]
  fold induction at 50 µM: 0.8
